From patent US20240269128A1, “COMPOUNDS FOR TREATING OR PREVENTING ALZHEIMER'S DISEASE” (THE UNITED STATES OF AMERICA, as represented by the …, priority 2021, published 2024)

Legend:
[1] = system: Primary hippocampal neurons; test: Aβ toxicity assay; type: cell-based, mouse; settings: HCQ 25, 2.5 or 0.25 μM
Experimental: Aβ toxicity: Primary hippocampal neurons were prepared from E18.5 timed pregnant C57BL/6JRccHsd mice as previously described. Cells were seeded in poly-D-lysine pre-coated 96-well plates at a density of 4×10^4 cells/well and cultivated until DIV10 (Neurobasal, 2% B-27, 0.5 mM glutamine, 25 μM glutamate, 1% Penicillin-Streptomycin). On DIV10 pre-aggregated Aβ1-42 (Bachem 4061966, final concentration 10 μM, 48 h at 4° C.) was added to the cells in the presence or absence of Hydroxychloroquine sulfate (TargetMol, T0951) at 25 μM, 2.5 μM or 0.25 μM concentrations. On DIV16 cells were subject to MTT assay to determine cell viability.

[2] = in vivo; cited from earlier work
[3] = system: microglia isolated from 5xFAD mice; test: LPS-induced neuroinflammation on MACS isolated 5xFAD microglia; type: cell-based, mouse
Experimental: MACS microglia isolation and cultivation: Adult microglia were isolated from 9 months old 5xFAD mice via magnetic cell sorting (MACS). The mice were terminally anesthetized by i.p. injection of Pentobarbital (600 mg/kg, dosing 10 μL/g body weight) and brains were transcardially perfused with DPBS. Brains were removed, the brainstem discarded and the remaining brain minced for cell dissociation. Cell dissociation was performed using Miltenyi Adult Brain Dissociation Kit (Miltenyi, 130-107-677). MACS cell separation was performed using CD11b (Microglia) MicroBeads, mouse (Miltenyi, 130-093-634) and MS columns on OctoMACS™ cell separator (Miltenyi). Isolated microglia were seeded onto 0.01% PLL coated plates at a density of 10.000 cells per well in 384 well plate in DMEM containing 10% FBS,1% penicillin/streptomycin, and 2 mM L-glutamine.
LPS-induced neuroinflammation on MACS isolated 5xFAD microglia: On DIV7 HCQ at 0.25 μM, 2.5 μM and 25 μM was applied 1 hour before LPS stimulation (Sigma-Aldrich; L6529; 1 mg/ml stock in ddH2O, final concentration in well: 50 ng/ml (dilutions in medium)). Cells treated with vehicle, cells treated with LPS alone, as well as cells treated with LPS plus reference item (dexamethasone 10 μM, Sigma D4902) served as controls. After 24 h of stimulation, cell supernatants were collected for the cytokine measurement (V-PLEX Proinflammatory Panel 1 Mouse Kit, K15048D, Mesoscale).

STAT3 = STAT3 (Mus musculus, UniProt P42227); test: Western blot of hippocampal STAT3 and p-STAT3 after STET; set-up: hippocampal homogenate samples across four groups; from tissue; host or cells: acute hippocampal slices from WT and APP/PS1 (APPSwe/PS1dE9) mice
Chain of STAT3 (P42227 whole entry): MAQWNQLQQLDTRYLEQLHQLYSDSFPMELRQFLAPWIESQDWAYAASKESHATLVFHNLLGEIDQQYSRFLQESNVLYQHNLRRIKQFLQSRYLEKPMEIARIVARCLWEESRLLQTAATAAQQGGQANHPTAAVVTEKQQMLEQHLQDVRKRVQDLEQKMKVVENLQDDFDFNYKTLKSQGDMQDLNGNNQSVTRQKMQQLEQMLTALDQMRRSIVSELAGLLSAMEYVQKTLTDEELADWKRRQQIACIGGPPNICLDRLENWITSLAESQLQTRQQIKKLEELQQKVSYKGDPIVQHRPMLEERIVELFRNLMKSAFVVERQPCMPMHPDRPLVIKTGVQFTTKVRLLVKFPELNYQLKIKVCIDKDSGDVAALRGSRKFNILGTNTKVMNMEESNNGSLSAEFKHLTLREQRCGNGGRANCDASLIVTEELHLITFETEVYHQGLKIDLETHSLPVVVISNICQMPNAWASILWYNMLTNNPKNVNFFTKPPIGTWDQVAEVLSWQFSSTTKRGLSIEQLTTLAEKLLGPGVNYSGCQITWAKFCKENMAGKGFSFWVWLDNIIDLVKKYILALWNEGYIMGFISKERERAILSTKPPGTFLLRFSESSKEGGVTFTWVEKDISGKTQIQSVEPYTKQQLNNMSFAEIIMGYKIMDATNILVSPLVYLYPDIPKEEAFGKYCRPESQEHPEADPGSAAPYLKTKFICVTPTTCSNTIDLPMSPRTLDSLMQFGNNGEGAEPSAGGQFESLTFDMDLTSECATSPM
Experimental: To test if the rescue of impaired late-LTP by HCQ may be through inactivation of STAT3, levels of total STAT3 and phosphorylated STAT3 (p-STAT3; Tyr705) were examined to determine whether they were reduced by HCQ treatment. Specifically, differences in STAT3 and pSTAT3 levels were tested in hippocampal homogenate samples across four groups: WT, APP/PS1, WT+50 μM HCQ, and APP/PS1+50 μM HCQ mice (5-months old). All hippocampal slices were incubated in the interphase chamber and HCQ was applied 30 minutes before and after STET. In each group, hippocampal slices were collected one hour after STET.

hippocampal p-STAT3 (Tyr705) (STAT3; APP/PS1+50 μM HCQ vs untreated APP/PS1): significantly lower
hippocampal total STAT3 (STAT3; APP/PS1 vs APP/PS1+50 μM HCQ): no significant difference
hippocampal total STAT3 and p-STAT3 (Tyr705) (STAT3; WT vs WT+50 μM HCQ): similar
Structure (SMILES): CCN(CCO)CCCC(C)Nc1ccnc2cc(Cl)ccc12 (stereo not drawn) [HCQ, hydroxychloroquine]
toxicity due to exogenous Aβ [1]: no effects
serious side effects of retinopathy and cardiac toxicity [2]: relatively rare
release of IL1-b [3]: lowered
release of IL-10 [3]: lowered
release of IL-12p70 [3]: lowered
release of IL6 ([3]; HCQ 0.25-25 μM): lowered
